Data on eight molecules can be found in US12501900B2, “Heterocyclyl pyridazine as fungicidal compounds” (Bayer Aktiengesellschaft, priority 2018, dated 2025).

The subject of data set [1] is Botrytis cinerea. Put plainly: In vivo preventive test on Botrytis cinerea (grey mould). Conditions: 500 ppm of active ingredient, preventive spray on gherkin or cabbage, evaluated 4 to 5 days after inoculation, read-out: efficacy. As to the method: Example: In Vivo Preventive Test on Botrytis cinerea (Grey Mould)
(§1) • Solvent: 5% by volume of Dimethyl sulfoxide • 10% by volume of Acetone • Emulsifier: 1 μl of Tween® 80 per mg of active ingredient
(§2) The active ingredients were made soluble and homogenized in a mixture of Dimethyl sulfoxide/Acetone//Tween®80 and then diluted in water to the desired concentration.
The young plants of gherkin or cabbage were treated by spraying the active ingredient prepared as described above. Control plants were treated only with an aqueous solution of Acetone/Dimethyl sulfoxide/Tween® 80.
After 24 hours, the plants were contaminated by spraying the leaves with an aqueous suspension of Botrytis cinerea spores. The contaminated gherkin plants were incubated for 4 to 5 days at 17° C. and at 90% relative humidity. The contaminated cabbage plants were incubated for 4 to 5 days at 20° C. and at 100% relative humidity.
The test was evaluated 4 to 5 days after the inoculation. 0% means an efficacy which corresponds to that of the control plants while an efficacy of 100% means that no disease was observed.

Data set [2] deals with Alternaria alternata. In words: Alternaria alternata in vitro cell test. The class given is cell-based. Conditions: 120 h, 20 ppm of active ingredient, liquid culture, 5 days incubation, read-out: efficacy (inhibition of fungal growth). As to the method: (§3) Example: Alternaria alternata In Vitro Cell Test • Solvent: DMSO • Culture medium: 14.6 g anhydrous D-glucose (VWR), 7.1 g Mycological Peptone (Oxoid), 1.4 g granulated Yeast Extract (Merck), QSP 1 liter • Inoculum: spores suspension Fungicides were solubilized in DMSO and the solution used to prepare the required range of concentrations. The final concentration of DMSO used in the assay was ≤1%. A spore suspension of A. alternata was prepared and diluted to the desired spore density. Fungicides were evaluated for their ability to inhibit spore germination and mycelium growth in liquid culture assay. The compounds were added in the desired concentration to the culture medium with spores. After 5 days incubation, fungi-toxicity of compounds was determined by spectrometric measurement of mycelium growth. Inhibition of fungal growth was determined by comparing the absorbance values in wells containing the fungicides with the absorbance in control wells without fungicides.

The nature of data set [3]: Measurement of LogP values by HPLC on reversed phase columns (EEC directive 79/831 Annex V.A8), methods [a], [b], [c]. Format: physicochemical. Conditions: HPLC on reversed phase column, method [a]; read-out: Log P. How it is done:
Measurement of Log P values as provided herein was performed according to EEC directive 79/831 Annex V.A8 by HPLC (High Performance Liquid Chromatography) on reversed phase columns with the following methods: • ^[a]
If more than one Log P value is available within the same method, all the values are given and separated by “+”.
Lambda-max-values were determined using UV-spectra from 200 nm to 400 nm and the peak values of the chromatographic signals

Data set [4] relates to Sphaerotheca fuliginea. In words: In vivo preventive test on Sphaerotheca fuliginea (powdery mildew on cucurbits). Conditions: Podosphaera fuliginea, 192 h; 500 ppm of active ingredient; preventive spray on gherkin; evaluated 8 days after inoculation; read-out: efficacy. How it is done:
Example: In Vivo Preventive Test on Sphaerotheca fuliginea (Powdery Mildew on Cucurbits)
as §1, §2
The young plants of gherkin were treated by spraying the active ingredient prepared as described above. Control plants were treated only with an aqueous solution of Acetone/Dimethyl sulfoxide/Tween® 80.
After 24 hours, the plants were contaminated by spraying the leaves with an aqueous suspension of Sphaerotheca fuliginea spores. The contaminated gherkin plants were incubated for 8 days at 20° C. and at 70-80% relative humidity.
The test was evaluated 8 days after the inoculation. 0% means an efficacy which corresponds to that of the control plants while an efficacy of 100% means that no disease was observed.

Data set [5] concerns Pyrenophora teres. Put plainly: In vivo preventive test on Pyrenophora teres (net blotch on barley). Conditions: 240 h, 500 ppm of active ingredient, preventive spray on barley, evaluated 10 days after inoculation, read-out: efficacy. As to the method: Example: In Vivo Preventive Test on Pyrenophora teres (Net Blotch on Barley)
as §1, §2
The young plants of barley were treated by spraying the active ingredient prepared as described above. Control plants were treated only with an aqueous solution of Acetone/Dimethyl sulfoxide/Tween®80.
After 24 hours, the plants were contaminated by spraying the leaves with an aqueous suspension of Pyrenophora teres spores. The contaminated barley plants were incubated for 48 hours at 20° C. and at 100% relative humidity and then for 8 days at 20° C. and at 70-80% relative humidity.
The test was evaluated 10 days after the inoculation. 0% means an efficacy which corresponds to that of the control plants while an efficacy of 100% means that no disease was observed.

The test system of data set [6] is Alternaria brassicae. Put plainly: In vivo preventive test on Alternaria brassicae (leaf spot on radish or cabbage). Conditions: 144 h, 500 ppm of active ingredient, preventive spray on radish or cabbage, evaluated 6 days after inoculation, read-out: efficacy. As to the method:
Example: In Vivo Preventive Test on Alternaria brassicae (Leaf Spot on Radish or Cabbage)
as §1, §2
The young plants of radish or cabbage were treated by spraying the active ingredient prepared as described above. Control plants were treated only with an aqueous solution of Acetone/Dimethyl sulfoxide/Tween® 80.
After 24 hours, the plants were contaminated by spraying the leaves with an aqueous suspension of Alternaria brassicae spores. The contaminated radish or cabbage plants were incubated for 6 days at 20° C. and at 100% relative humidity.
The test was evaluated 6 days after the inoculation. 0% means an efficacy which corresponds to that of the control plants while an efficacy of 100% means that no disease was observed.

Data set [7] has as its system Colletotrichum lindemuthianum. Put plainly: In vivo preventive test on Colletotrichum lindemuthianum (leaf spot on bean). Conditions: 168 h, 500 ppm of active ingredient, preventive spray on bean, evaluated 7 days after inoculation, read-out: efficacy. How it is done: Example: In Vivo Preventive Test on Colletotrichum lindemuthianum (Leaf Spot on Bean)
as §1, §2
The young plants of bean were treated by spraying the active ingredient prepared as described above. Control plants were treated only with an aqueous solution of Acetone/Dimethyl sulfoxide/Tween® 80.
After 24 hours, the plants were contaminated by spraying the leaves with an aqueous suspension of Colletotrichum lindemuthianum spores. The contaminated bean plants were incubated for 24 hours at 20° C. and at 100% relative humidity and then for 6 days at 20° C. and at 90% relative humidity.
The test was evaluated 7 days after the inoculation. 0% means an efficacy which corresponds to that of the control plants while an efficacy of 100% means that no disease was observed.

In data set [8] the test system is Colletotrichum lindemuthianum. Put plainly: Colletotrichum lindemuthianum in vitro cell test. The class given is cell-based. Conditions: 144 h, 20 ppm of active ingredient, liquid culture, 6 days incubation, read-out: efficacy (inhibition of fungal growth). As to the method: as §3, with “Example: Colletotrichum lindemuthianum” for “Example: Alternaria alternata”, “of C. lindemuthianum” for “of A. alternata”, “inhibit spores” for “inhibit spore”, “After 6” for “After 5”

As a reminder, the inhibition is the share of the control response that was lost under treatment. In the case of `Cc1cc(C2=NOCC(c3ccc(Cl)cc3)N2)c(Oc2cccc(C(F)(F)F)c2)nn1` (racemic) [I-040, rac-5-(4-chlorophenyl)-3-[6-methyl-3-[3-(trifluoro-methyl)phenoxy]pyridazin-4-yl]-5,6-dihydro-4H-1,2,4-oxadiazine], the pest or weed control at 500 ppm was 90 to 100% in data set [1]; 80 to 89% in data set [4]; 80 to 89% in data set [5]; 90 to 100% in data set [6]; 90 to 100% in data set [7]. For the same molecule, the inhibition at 20 ppm in data set [2] and in data set [8] was 90 to 100% in each case. In addition, in data set [3], the chromatographic logP stood at 3.29.
For the molecule `Cc1ccc(CC2CON=C(c3c(Oc4cccc(C(F)(F)F)c4)nnc(Cl)c3NC3CC3)N2)c(C)c1` (racemic) [I-041, 3-chloro-N-cyclopropyl-5-[rac-5-[(2,4-dimethylphenyl)methyl]-5,6-dihydro-4H-1,2,4-oxadiazin-3-yl]-6-[3-(trifluoromethyl)phenoxy]pyridazin-4-amine], the pest or weed control at 500 ppm in data set [1], in data set [4] and in data set [6] was 90 to 100% throughout. The inhibition at 20 ppm in data set [2] and in data set [8] was 90 to 100% in each case. In addition, in data set [3], the chromatographic logP is 4.03.
`Cc1ccc(CC2CON=C(c3c(Oc4cccc(C5CC5)c4F)nnc(Cl)c3C)N2)c(C)c1` (racemic) [I-058, rac-3-[6-chloro-3-(3-cyclopropyl-2-fluoro-phenoxy)-5-methyl-pyridazin-4-yl]-5-[(2,4-dimethylphenyl)methyl]-5,6-dihydro-4H-1,2,4-oxadiazine]: the pest or weed control at 500 ppm lay in the range of 90 to 100% in data set [1]; 90 to 100% in data set [4]; 80 to 89% in data set [5]; 90 to 100% in data set [6]; 90 to 100% in data set [7]. Further, the inhibition at 20 ppm in data set [2] and in data set [8] was 90 to 100% each time. In data set [3], the chromatographic logP was found to be 4.3.
Consider `Cc1cc(C2=NOCCC(c3ccc4c(ccn4C)c3)N2)c(Oc2cccc(C(F)(F)F)c2)nn1` (racemic) [I-062, rac-5-(1-methylindol-5-yl)-3-[6-methyl-3-[3-(trifluoro-methyl)phenoxy]pyridazin-4-yl]-4,5,6,7-tetrahydro-1,2,4-oxadiazepine], for which the pest or weed control at 500 ppm in data set [1], in data set [4], in data set [6] and in data set [7] was 90 to 100% each time. The chromatographic logP in data set [3] was 1.92.
In the case of `Cc1ccc(CC2CON=C(c3c(Oc4cccc(C(F)(F)F)c4)nnc(Cl)c3I)N2)c(C)c1` (racemic) [I-065, rac-3-[6-chloro-5-iodo-3-[3-(trifluoromethyl)phenoxy]pyridazin-4-yl]-5-[(2,4-dimethylphenyl)methyl]-5,6-dihydro-4H-1,2,4-oxadiazine], the inhibition at 20 ppm in data set [2] and in data set [8] was 90 to 100% each time. Further, the chromatographic logP in data set [3] was 4.37. The figures for the pest or weed control at 500 ppm in data set [5], in data set [6] and in data set [7] were 70 to 79%, 90 to 100% and 90 to 100%, respectively.
Regarding `Cc1ccc(CC2CCN=C(c3cc(Cl)nnc3Oc3cccc(C(F)(F)F)c3)N2)c(C)c1` (racemic) [I-117, 6-chloro-4-[rac-6-[(2,4-dimethylphenyl)methyl]-1,4,5,6-tetrahydropyrimidin-2-yl]-3-[3-(trifluoromethyl)phenoxy]pyridazine], the pest or weed control at 500 ppm in data set [1], in data set [6] and in data set [7] was 90 to 100% in each case. Further, the inhibition at 20 ppm in data set [2] and in data set [8] was 90 to 100% in each case. For the same molecule, in data set [3], the chromatographic logP was found to be 2.56.
For `Cc1ccc(OCC2CON=C(c3cc(C)nnc3Oc3cccc(C(F)(F)F)c3)N2)c(C)c1` (racemic) [I-144, rac-5-[(2,4-dimethylphenoxy)methyl]-3-[6-methyl-3-[3-(trifluoromethyl)phenoxy]pyridazin-4-yl]-5,6-dihydro-4H-1,2,4-oxadiazine], the results for the pest or weed control at 500 ppm in data set [1], in data set [4] and in data set [6] were 90 to 100%, 70 to 79% and 90 to 100%, respectively. Moreover, the inhibition at 20 ppm in data set [2] and in data set [8] was 90 to 100% throughout. Besides, the chromatographic logP in data set [3] was found to be 3.98.
For the molecule `COCCSc1nnc(Oc2cccc(C(F)(F)F)c2)c(C2=NOCC(Cc3ccc(C)cc3C)N2)c1C` (racemic) [I-187, rac-5-[(2,4-dimethylphenyl)methyl]-3-[6-(2-methoxyethylsulfanyl)-5-methyl-3-[3-(trifluoromethyl)phenoxy]pyridazin-4-yl]-5,6-dihydro-4H-1,2,4-oxadiazine], the pest or weed control at 500 ppm in data set [1], in data set [4] and in data set [6] was 90 to 100% in each case. Moreover, the inhibition at 20 ppm in data set [2] and in data set [8] was 90 to 100% each time. The chromatographic logP in data set [3] was determined as 4.51.
